Measurements reported in US9320773B2, “Compounds and therapeutic applications related to inhibition of dendritic cell immunoreceptor (DCIR) activity and signaling events” (priority 2010, dated 2016).
Residues, ends and D or L forms follow the SMILES beside them. *: point of attachment. Cbz = O=C(OCc1ccccc1)*; CH2F = FC*

What was measured:
[1] = test system: HIV-1 NL4-3 in Raji-CD4-DCIR cells; assay: HIV-1 binding/entry assay in Raji-CD4-DCIR cells (cell-associated p24 ELISA); assay type: cell-based; details: cells pretreated with inhibitor 10 min, pulsed with NL4-3 60 min; result in words
Protocol: FIG. 2A: Raji-CD4 and Raji-CD4-DCIR cells were either left untreated or treated with SSG (100 μg/ml) for 10 min at 37° C. Thereafter, cells were pulsed with NL4-3 for 60 min. After three washes with PBS to remove non-adsorbed virus, cell-associated virus was quantified by measuring the p24 content. Data shown correspond to the means±SD of triplicate samples from three combined independent experiments. The asterisk denotes statistically significant data (*, P<0.05; **, P<0.01). FIG. 2B: Cells were either left untransfected or transfected with a sense or antisense oligonucleotide specific for the signalling protein of interest. Next, cells were pulsed with NL4-3 for 60 min. After three washes with PBS to eliminate unbound virus, cell-associated virus was quantified by measuring the p24 content. Data shown correspond to the means±SD of triplicate samples from three combined independent experiments. The asterisk denotes statistically significant data (*, P<0.05; **, P<0.01). After gene silencing, the diminution of the targeted protein was verified by western blots, provided as an insert for each graph.
Where indicated, parental Raji-CD4 cells (DCIR-negative) or Raji-CD4-DCIR transfectants (1×10^6) were pretreated with the indicated amount of a pharmacological inhibitor for 10 min or transfected with sense or antisense oligonucleotides as described below. Cells were then pulsed with NL4-3 (100 ng of p24) for 60 min at 37° C. Next the virus-cell mixture was washed 3 times with PBS to remove unbound virus and resuspended in PBS containing 1% BSA. To assess binding/entry, the p24 content was determined by our in-house ELISA assay^33.
Raji-CD4 and Raji-CD4-DCIR cells (1×10^6 cells) were washed with OptiMEM (Invitrogen Life Technologies) without serum and antibiotics. The phosphorothioate oligodeoxynucleotides (Listed in Table 1) (Invitrogen Life Technologies) were transfected at a final concentration of 10 μM/well^35 using Oligofectamine according to the manufacturer's instructions (Invitrogen Life Technologies). Silencing efficiency was monitored by western blot analysis.

[2] = test system: DCIR expression in CD4+ T cells; assay: HIV-1-mediated induction of DCIR expression in CD4+ T cells (flow cytometry); assay type: cell-based, human; details: for HIV-1-mediated DCIR expression: cells pre-treated before virus infection, 3 days, result in words
Protocol: Mitogen-activated CD4^+ T cells (1×10^6) were first either left untreated or treated for 1 h with the caspase inhibitor Z-VAD-FMK (50 nM), after which HIV-1 was added (100 ng of p24), where indicated. DCIR expression was monitored 3 days later by flow cytometry. Data shown represent the means±SD of triplicate samples from three independent experiments.
Cells (1×10^6) were first either left untreated or treated for 1 h with NAC, after which HIV-1 (100 ng of p24) was added. DCIR expression was monitored 3 days later by flow cytometry. Expression of DCIR is shown as a dotted line, whereas the continuous line represents staining obtained with an isotype-matched irrelevant control Ab. Data shown correspond to a single experiment representative of 3 independent experiments.
Cell surface expression of DCIR was monitored by flow cytometric analysis (Epics ELITE ESP, Coulter Electronics, Burlington, Canada). Cells (1×10^6 cells) were incubated for 30 min with a pool of human serum to block the unspecific binding. After washing, the cells were incubated with PE-labeled anti-DCIR (0.25 μg) for 45 min at 4° C. and then washed twice with PBS and 0.5% BSA. Non-specific staining was determined by using an isotype-matched irrelevant control antibody. After two final washes with PBS, cells were fixed in 2% paraformaldehyde for 30 min and analyzed.

CD4+ T cells = assay: Cell toxicity / viability of CD4+ T cells; assay type: cell-based, human; details: HIV-1-infected CD4+ T cells; data not shown
[3] = test system: DCIR expression in CD4+ T cells; assay: DCIR expression in CD4+ T cells after H2O2 or other apoptosis inducers (flow cytometry); assay type: cell-based, human
Protocol: Next, DCIR expression was assessed by flow cytometry. Data shown represent the ratio of DCIR expression over basal expression. The ratio is calculated from the means±SD of triplicate samples from three independent experiments. […] FIG. 16A: […] Expression of DCIR is shown as a dotted line, whereas the continuous line represents staining obtained with an isotype-matched irrelevant control Ab. Data shown correspond to a single experiment representative of 3 independent experiments. FIG. 16B: […] Thereafter, DCIR surface expression and caspase activation were monitored by flow cytometric analysis using a double-staining method consisting of FITC-VAD-FMK followed by the R-PE-conjugated anti-DCIR. Data shown correspond to a single experiment representative of 4 independent experiments. Cell surface expression of DCIR was monitored by flow cytometric analysis (Epics ELITE ESP, Coulter Electronics, Burlington, Canada). […] After washing, the cells were incubated with PE-labeled anti-DCIR (0.25 μg) for 45 min at 4° C. and then washed twice with PBS and 0.5% BSA. Non-specific staining was determined by using an isotype-matched irrelevant control antibody. After two final washes with PBS, cells were fixed in 2% paraformaldehyde for 30 min and analyzed.

For `Cn1c2ccccc2c2c3c(c4c5ccccc5n(CCC#N)c4c21)CNC3=O` [Go6976], the HIV-1 binding/entry [1] was “play a role”.

`CC(=O)N[C@@H](CS)C(=O)O` [NAC, N-acetyl-L-cystein] was tested, and the “HIV-1-mediated DCIR expression” value [2] was “inhibited but not completely”, the “HIV-1-induced expression of DCIR on the surface of CD4+ T cells” value ([2]; virus-infected cells also treated with NAC, n=3, 16.2±3.4% in HIV-1-infected cells without NAC) was 6.7±1.7% and the cell toxicity (CD4+ T cells) was “no toxicity”.

In the case of `COc1cccc(-c2cc(=O)c3ccccc3o2)c1N` [PD98059], the HIV-1 binding/entry [1] is reported as “significant decrease”.

With `CC(C)(C)n1nc(-c2ccc(Cl)cc2)c2c(N)ncnc21` [PP2] the HIV-1 binding/entry [1] was “decreased”.

For `Oc1cc(O)cc(/C=C/c2ccc(O)c(O)c2)c1` [Pic, piceatannol], the HIV-1 binding/entry [1] was “significantly decreases”.

With `C[S+]([O-])c1ccc(-c2nc(-c3ccncc3)c(-c3ccc(F)cc3)[nH]2)cc1` (centres unmarked) [SB203580] the HIV-1 binding/entry [1] was “significant decrease”.

`COC(=O)CC(NC(=O)C(C)NC(=O)C(NC(=O)OCc1ccccc1)C(C)C)C(=O)CF` (stereo not drawn) [Z-VAD-FMK, Benzyloxycarbonyl-Val-Ala-Asp (OMe) fluoromethylketone] (Cbz-Val-Ala-Asp(OMe)-CH2F; configuration not given here) was tested, and the “HIV-1-mediated DCIR expression” value [2] was “partially reduced”, the “DCIR expression in activated CD4+ T cells” value ([3]; cells treated with both H2O2 (30 μM) and Z-VAD-FMK (50 nM, 1 h pretreatment), n=3) was 1.0±0.2% and the “DCIR expression after H2O2 stimulation” value ([3]; pretreatment with Z-VAD-FMK, result in words) was “prevented”. For the same compound, the cell toxicity (CD4+ T cells) was “no toxicity”.

For `CN[C@@H]1C[C@H]2O[C@@](C)([C@@H]1OC)n1c3ccccc3c3c4c(c5c6ccccc6n2c5c31)C(=O)NC4` [staurosporine], the DCIR expression ([3]; CD4+ T cells treated with inducer, H2O2 20 to 60 μM, result in words) was “promoted”.

For `C(=C\c1ccccc1)/c1ccccc1` [trans-stilbene], the HIV-1 binding/entry [1] was “inability of the inactive analog trans-stilbene to induce a comparable decrease”.
